Patent US20120046331A1, “Antifungal Agents and Uses Thereof” (priority 2010, published 2012)
Converted amounts (≈) assume the structure as drawn. Like-named read-outs stand apart in the source and are kept apart here.

How the values were obtained:
E. floccosum = experiment: Checkerboard combination testing of compound 8 with antifungals, FIC (Example 1); assay type: cell-based, Epidermophyton floccosum; conditions: in combination with Cpd 8, one value per clinical isolate (Strain # 1-6)
Description: This example describes the in vitro activity of combinations of compounds according to the present invention and antifungal agents against a collection of dermatophytic fungal pathogens. Antifungal susceptibility testing was adapted from the CLSI M38-A broth microdilution method for dermatophytes (NCCLS-M38-A2 2008). Combination testing was performed by checkerboard method (with compound 8 in combination with fluconazole, itraconazole or terbinafine). A total of 30 isolates of 5 different fungal species were tested in the combination test: 6 isolates each of Trichophyton tonsurans, Trichophyton rubrum, Epidermophyton floccosum, Trichophyton mentagrophytes and Microsporum canis. Clinical isolates were obtained by the Laboratory of Dr. M. Ghannoum at Case Western University.
Synergy was assessed using the fractional inhibitory concentration (FIC), an interaction coefficient, with the following definitions:
The fold reduction of the itraconazole minimum inhibitory concentration (MIC) was also evaluated.

T. rubrum = experiment: MIC testing, modified CLSI M38-A2 for dermatophytes (Example 2); assay type: cell-based, Trichophyton rubrum; conditions: for MIC50: lowest concentration to inhibit 50% of the strains tested, n = 20
T. tonsurans = experiment: as above; assay type: cell-based; conditions: n = 5 strains
Description: (§1) MIC testing was performed according to the modification of the CLSI M38-A2 standard for dermatophytes developed at the Center (CLSI. Reference Method for Broth Dilution Antifungal Susceptibility Testing of Filamentous Fungi; Approved Standard-Second Edition. CLSI document M38-A2 [ISBN 1-56238-668-9]. CLSI, 940 West Valley Road, Suite 1400, Wayne, Pa. 19087-1898 USA, 2008; Ghannoum M A, et al. Intra- and Interlaboratory Study of a Method for Testing the Antifungal Susceptibilities of Dermatophytes. 2004 J Clin Microbiol 42:(7): 2977-2979). Compound 8 and fluconazole were tested in combination using a checkerboard microdilution method. The interaction between Compound 8 and fluconazole was determined by FIC Index, or Fractional Inhibitory Concentration Index, which assigns a numerical value to the interaction of the two antifungals.

T. mentagrophytes = experiment: as above; assay type: cell-based; conditions: n = 5 strains
Description: as §1

| MIC (E. floccosum; Epidermophyton floccosum, read-out: Itraconazole MIC with Cpd 8) [µg/mL] | Itraconazole MIC with Cpd 8 (E. floccosum) [µg/mL] | MIC50 (T. rubrum; Trichophyton rubrum, read-out: MIC50) [µg/mL] | MIC90 (T. rubrum; Trichophyton rubrum, n = 20 strains) [µg/mL] | MIC50 (T. rubrum) [µg/mL] | MIC Range (T. rubrum; n = 20 strains) [µg/mL] | MIC50 (T. tonsurans; Trichophyton tonsurans) [µg/mL] | MIC90 (T. tonsurans; Trichophyton tonsurans) [µg/mL] | MIC Range (T. tonsurans) [µg/mL] | MIC50 (T. mentagrophytes; Trichophyton mentagrophytes) [µg/mL] | MIC90 (T. mentagrophytes; Trichophyton mentagrophytes) [µg/mL] | MIC Range (T. mentagrophytes) [µg/mL] | SMILES |
| --- | --- | --- | --- | --- | --- | --- | --- | --- | --- | --- | --- | --- |
| 0.015 | 0.008 | – | – | – | – | – | – | – | – | – | – | CCC(C)n1ncn(-c2ccc(N3CCN(c4ccc(OCC5COC(Cn6cncn6)(c6ccc(Cl)cc6Cl)O5)cc4)CC3)cc2)c1=O (stereo not drawn) [Itraconazole, itraconazole, reference compound] |
| – | – | 1 (≈ 3.27 µM) | 1 (≈ 3.27 µM) | 1 (≈ 3.27 µM) | 0.25 to 4.0 | 2 | 4 | 1.0 to 4.0 | 16 | 16 | 2.0 to 16.0 | OC(Cn1cncn1)(Cn1cncn1)c1ccc(F)cc1F [Fluconazole, fluconazole] |
